According to patent publication US12527757B2, “Nanoemulsion of 18BETA-glycyrrhetinic acid” (ATSO CORPORATE AFFAIRS, S.A. DE C.V., priority 2019, dated 2026):
Like-named read-outs stand apart in the source and are kept apart here.

Tests used:
HaCaT cells = experiment: Alkaline comet assay (single cell electrophoresis), HaCaT; format: cell-based
Procedure: (§1) This difference in drug performance can be explained by the difference in their mechanisms of action. […] The comet assay is an experiment that allows to see if the drug has a cytotoxic effect related to DNA fragmentation of the cells. This difference is visualized by the size of the “tails” of the “comets”, which is the fragmented DNA from the cells under study.
(§2) An analysis with a Wilcoxon test was performed to verify whether the means in the percentage of DNA in the comet tails of the different cell lines differ.
(§3) FIG. 2 depicts representative tail-DNA percentage data. (A) Microphotographs of the alkaline comet assay showing representative images of the CC cell lines and their negative control with their 18β and GA treatments of HeLa (HPV 18 cervical cancer) and HaCaT (HPV negative immortalized keratinocyte) (B) Comet assay data plot of Tail-DNA percentage **P<0.43 for HaCaT and P<2^−16. Larger comets for 18β treatment are observed.

HeLa cells [1] = experiment: Alkaline comet assay (single cell electrophoresis), HeLa; format: cell-based; settings: HeLa cancer cells
Procedure: as §1, §2, §3

SiHa cells = experiment: Cell survival inhibition assay, SiHa; format: cell-based; settings: SiHa (HPV-16), 24 hours, 10-100 μM
Procedure: (§4) In this sense, a cell survival inhibition assay of different cell lines was carried out when exposed for hours 24 to one of the two drugs from FIG. 1. In this experiment, four cell lines were tested: HeLa, which are cell lines representative of cancer and HPV-18 infection, SiHa which are cells representative of cervical cancer with HPV-16 infection, C-33A which are cells representative of HPV-negative cervical carcinoma, and HaCaT, which are cancer and infection negative cells. The experiment consisted of exposing cells of the different cell lines to different concentrations of both drugs for 24 hours (10-100 μM) going in steps of 10 μM each.

HeLa cells [2] = experiment: Cell survival inhibition assay, HeLa; format: cell-based; settings: HeLa (HPV-18), 24 hours, 10-100 μM
Procedure: as §4

Hepatitis C virus (HCV) = settings: by preventing the release of infectious viral particles; cited from earlier work
C-33A cells = experiment: Cell survival inhibition assay, C-33A; format: cell-based; settings: C-33A (HPV-negative cervical carcinoma), 24 hours, 10-100 μM
Procedure: as §4

[3] = cited from earlier work
Rotavirus = settings: infected cultures; cited from earlier work
[4] = cited from earlier work; remark: listed apart in the source

| SMILES | DNA fragmentation (comet tails) (HaCaT cells; HaCaT healthy cells) | DNA fragmentation (comet tails) (HeLa cells [1]) | inhibition of cell survival (SiHa cells) | inhibition of cell survival (HeLa cells [2]) | reduction of Hepatitis C virus (HCV) titers (Hepatitis C virus (HCV)) [%] | inhibition of cell survival (C-33A cells) | DNA fragmentation (comet tails) (HaCaT cells) | solubility in water [3] | interference with Rotavirus replication (Rotavirus) | log P [4] |
| --- | --- | --- | --- | --- | --- | --- | --- | --- | --- | --- |
| CC1(C)[C@@H](O[C@H]2O[C@H](C(=O)O)[C@@H](O)[C@H](O)[C@H]2O[C@@H]2O[C@H](C(=O)O)[C@@H](O)[C@H](O)[C@H]2O)CC[C@]2(C)[C@H]3C(=O)C=C4[C@@H]5C[C@@](C)(C(=O)O)CC[C@]5(C)CC[C@@]4(C)[C@]3(C)CC[C@@H]12 [GA, Glycyrrhizic acid] | do not present this fragmentation | do not present this fragmentation | no effect | minor effect | 50 | minor effect |  |  |  |  |
| CC1(C)[C@@H](O)CC[C@]2(C)[C@H]3C(=O)C=C4[C@@H]5C[C@@](C)(C(=O)O)CC[C@]5(C)CC[C@@]4(C)[C@]3(C)CC[C@@H]12 [Example 18β-GA, 18β-glycyrrhetinic acid] |  | considerable DNA fragmentation | greater effect than GA | greater effect than GA |  | greater effect than GA | much less fragmentation | insoluble in water | up to 99% | 6.574 |
